ChEMBL document CHEMBL3124838, “Discovery of 6-aryl-azabenzimidazoles that inhibit the TBK1/IKK-ε kinases” (Bioorg Med Chem Lett, 2014)

Target: Macrophage-stimulating protein receptor (Homo sapiens) (UniProt Q04912)
Test: Inhibition of human RON assessed as residual activity at 1 uM relative to control

SMILES | Activity [%]
COc1ccc(-c2nc3cc(-c4csc(C(=O)NCC(C)(C)C)c4)cnc3[nH]2)cc1 | 122
COc1ccc(-c2nc3cc(-c4csc(C(=O)NCC(C)C)c4)cnc3[nH]2)cc1 | 128
COc1ccc(-c2nc3cc(-c4csc(C(=O)NCCC(C)C)c4)cnc3[nH]2)cc1 | 132

Target: Insulin-like growth factor 1 receptor (Homo sapiens) (UniProt P08069)
Sequence (P08069 31-736 limits assumed): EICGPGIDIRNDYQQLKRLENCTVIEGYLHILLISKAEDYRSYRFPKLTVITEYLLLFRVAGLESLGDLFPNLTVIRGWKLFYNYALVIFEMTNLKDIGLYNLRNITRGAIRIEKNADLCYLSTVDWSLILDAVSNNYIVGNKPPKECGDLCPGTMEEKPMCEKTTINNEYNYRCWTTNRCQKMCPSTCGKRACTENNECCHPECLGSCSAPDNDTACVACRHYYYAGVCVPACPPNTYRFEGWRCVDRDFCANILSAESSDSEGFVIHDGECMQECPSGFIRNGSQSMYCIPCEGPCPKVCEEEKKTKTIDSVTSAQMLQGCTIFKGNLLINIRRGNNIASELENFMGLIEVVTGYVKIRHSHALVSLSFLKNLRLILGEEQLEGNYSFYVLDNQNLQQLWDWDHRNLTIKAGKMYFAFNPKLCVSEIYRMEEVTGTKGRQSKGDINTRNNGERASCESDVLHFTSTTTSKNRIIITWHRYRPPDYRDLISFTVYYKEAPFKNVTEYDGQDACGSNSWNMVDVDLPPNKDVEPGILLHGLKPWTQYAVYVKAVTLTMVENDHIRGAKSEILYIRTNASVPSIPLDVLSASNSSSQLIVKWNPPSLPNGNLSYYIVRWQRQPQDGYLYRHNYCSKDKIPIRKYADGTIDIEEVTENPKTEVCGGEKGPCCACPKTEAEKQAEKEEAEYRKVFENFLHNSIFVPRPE
Sequence (P08069 741-1367 limits assumed): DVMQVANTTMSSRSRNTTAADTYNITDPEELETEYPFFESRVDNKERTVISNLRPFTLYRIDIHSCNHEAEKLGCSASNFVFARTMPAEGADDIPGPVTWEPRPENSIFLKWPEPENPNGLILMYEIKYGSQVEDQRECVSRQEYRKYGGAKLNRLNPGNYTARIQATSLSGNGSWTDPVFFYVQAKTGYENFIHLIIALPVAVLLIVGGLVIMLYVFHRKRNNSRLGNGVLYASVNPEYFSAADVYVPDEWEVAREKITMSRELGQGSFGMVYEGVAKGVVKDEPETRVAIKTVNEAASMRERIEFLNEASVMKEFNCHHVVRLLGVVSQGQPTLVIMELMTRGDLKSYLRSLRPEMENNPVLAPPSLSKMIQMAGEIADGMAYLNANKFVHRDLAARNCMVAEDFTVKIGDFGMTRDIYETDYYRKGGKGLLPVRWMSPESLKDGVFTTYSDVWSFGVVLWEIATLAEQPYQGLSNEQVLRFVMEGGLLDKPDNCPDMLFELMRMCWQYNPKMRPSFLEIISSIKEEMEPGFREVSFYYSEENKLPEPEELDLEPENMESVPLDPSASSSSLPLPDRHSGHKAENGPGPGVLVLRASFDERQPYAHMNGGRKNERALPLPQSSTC
Test: Inhibition of human activated IGF-1R assessed as residual activity at 1 uM relative to control

SMILES | Activity [%]
COc1ccc(-c2nc3cc(-c4csc(C(=O)NCC(C)(C)C)c4)cnc3[nH]2)cc1 | 80
COc1ccc(-c2nc3cc(-c4csc(C(=O)NCC(C)C)c4)cnc3[nH]2)cc1 | 95
COc1ccc(-c2nc3cc(-c4csc(C(=O)NCCC(C)C)c4)cnc3[nH]2)cc1 | 91

Target: T1, Cytoplasmic tyrosine-protein kinase BMX (Homo sapiens) (UniProt P51813)
T1 sequence (whole entry): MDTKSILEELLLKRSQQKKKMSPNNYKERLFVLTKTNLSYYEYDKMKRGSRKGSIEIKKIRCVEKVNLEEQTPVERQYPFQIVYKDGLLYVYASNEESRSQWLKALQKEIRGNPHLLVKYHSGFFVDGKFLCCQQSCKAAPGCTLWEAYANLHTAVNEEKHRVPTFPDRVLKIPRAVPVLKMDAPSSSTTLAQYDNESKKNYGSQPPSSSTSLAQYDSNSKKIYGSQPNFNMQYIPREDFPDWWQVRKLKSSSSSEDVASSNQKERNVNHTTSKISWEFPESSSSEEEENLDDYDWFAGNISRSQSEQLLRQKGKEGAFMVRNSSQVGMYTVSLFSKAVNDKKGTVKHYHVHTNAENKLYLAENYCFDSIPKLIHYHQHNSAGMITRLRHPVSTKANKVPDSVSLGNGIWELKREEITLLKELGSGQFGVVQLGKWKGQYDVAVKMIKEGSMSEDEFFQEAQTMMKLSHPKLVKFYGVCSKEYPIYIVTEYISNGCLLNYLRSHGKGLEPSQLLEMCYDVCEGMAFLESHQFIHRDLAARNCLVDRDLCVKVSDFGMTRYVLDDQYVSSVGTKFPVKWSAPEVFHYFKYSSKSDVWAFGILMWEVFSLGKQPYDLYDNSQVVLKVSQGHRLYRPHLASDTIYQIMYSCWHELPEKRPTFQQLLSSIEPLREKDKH
Test: Inhibition of human BMX assessed as residual activity at 1 uM relative to control

SMILES | Activity [%]
COc1ccc(-c2nc3cc(-c4csc(C(=O)NCC(C)(C)C)c4)cnc3[nH]2)cc1 | 100
COc1ccc(-c2nc3cc(-c4csc(C(=O)NCC(C)C)c4)cnc3[nH]2)cc1 | 92
COc1ccc(-c2nc3cc(-c4csc(C(=O)NCCC(C)C)c4)cnc3[nH]2)cc1 | 105

Target: T2, Serine/threonine-protein kinase Sgk1 (Homo sapiens) (UniProt O00141)
T2 sequence (whole entry): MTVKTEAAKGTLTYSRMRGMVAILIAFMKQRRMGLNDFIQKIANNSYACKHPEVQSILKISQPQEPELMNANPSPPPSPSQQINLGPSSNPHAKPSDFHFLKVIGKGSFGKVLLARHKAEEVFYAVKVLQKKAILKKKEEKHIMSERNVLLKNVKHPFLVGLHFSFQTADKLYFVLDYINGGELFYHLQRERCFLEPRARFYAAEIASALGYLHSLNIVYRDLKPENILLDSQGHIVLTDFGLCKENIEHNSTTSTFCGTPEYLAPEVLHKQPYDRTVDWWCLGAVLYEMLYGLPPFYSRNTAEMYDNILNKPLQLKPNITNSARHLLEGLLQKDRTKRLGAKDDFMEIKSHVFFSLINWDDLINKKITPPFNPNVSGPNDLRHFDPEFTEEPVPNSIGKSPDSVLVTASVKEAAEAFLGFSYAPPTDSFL
Test: Inhibition of human SGK assessed as residual activity at 1 uM relative to control

SMILES | Activity [%]
COc1ccc(-c2nc3cc(-c4csc(C(=O)NCC(C)(C)C)c4)cnc3[nH]2)cc1 | 82
COc1ccc(-c2nc3cc(-c4csc(C(=O)NCC(C)C)c4)cnc3[nH]2)cc1 | 102
COc1ccc(-c2nc3cc(-c4csc(C(=O)NCCC(C)C)c4)cnc3[nH]2)cc1 | 78

Target: Insulin receptor-related protein (Homo sapiens) (UniProt P14616)
Sequence (P14616 27-742 limits assumed): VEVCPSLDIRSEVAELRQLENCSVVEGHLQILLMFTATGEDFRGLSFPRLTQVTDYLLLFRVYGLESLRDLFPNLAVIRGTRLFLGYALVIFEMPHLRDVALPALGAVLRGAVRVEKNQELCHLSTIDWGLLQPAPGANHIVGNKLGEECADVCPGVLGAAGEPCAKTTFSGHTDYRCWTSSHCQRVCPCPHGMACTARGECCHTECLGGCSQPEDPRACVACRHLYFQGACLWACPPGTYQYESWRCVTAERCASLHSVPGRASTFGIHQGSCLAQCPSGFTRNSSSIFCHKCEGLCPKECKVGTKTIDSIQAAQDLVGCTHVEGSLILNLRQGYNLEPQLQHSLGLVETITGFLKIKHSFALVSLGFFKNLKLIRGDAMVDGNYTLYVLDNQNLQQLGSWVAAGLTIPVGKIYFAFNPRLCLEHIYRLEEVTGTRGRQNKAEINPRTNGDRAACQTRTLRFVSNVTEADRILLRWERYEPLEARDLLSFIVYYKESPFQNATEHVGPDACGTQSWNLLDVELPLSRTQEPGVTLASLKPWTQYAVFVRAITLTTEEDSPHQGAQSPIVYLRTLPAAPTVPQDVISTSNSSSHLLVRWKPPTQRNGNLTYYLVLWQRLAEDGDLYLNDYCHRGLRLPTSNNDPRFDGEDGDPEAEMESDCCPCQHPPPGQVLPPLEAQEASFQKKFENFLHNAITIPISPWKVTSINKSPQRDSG
Sequence (P14616 747-1297 limits assumed): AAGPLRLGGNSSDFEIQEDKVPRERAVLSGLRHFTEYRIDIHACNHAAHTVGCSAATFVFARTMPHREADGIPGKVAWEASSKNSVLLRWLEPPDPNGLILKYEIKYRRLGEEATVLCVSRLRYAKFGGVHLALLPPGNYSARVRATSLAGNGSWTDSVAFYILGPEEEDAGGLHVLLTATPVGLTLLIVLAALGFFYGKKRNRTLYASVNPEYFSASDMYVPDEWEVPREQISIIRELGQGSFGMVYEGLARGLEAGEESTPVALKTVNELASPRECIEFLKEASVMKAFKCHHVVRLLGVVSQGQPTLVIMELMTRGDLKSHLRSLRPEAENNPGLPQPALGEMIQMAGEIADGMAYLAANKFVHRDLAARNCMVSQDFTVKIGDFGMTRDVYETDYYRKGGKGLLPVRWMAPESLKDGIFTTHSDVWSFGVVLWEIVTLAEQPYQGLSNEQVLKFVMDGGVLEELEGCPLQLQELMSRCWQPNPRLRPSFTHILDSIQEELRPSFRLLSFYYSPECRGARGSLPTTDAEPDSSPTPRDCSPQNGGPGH
Test: Inhibition of human IRR assessed as residual activity at 1 uM relative to control

SMILES | Activity [%]
COc1ccc(-c2nc3cc(-c4csc(C(=O)NCC(C)(C)C)c4)cnc3[nH]2)cc1 | 70
COc1ccc(-c2nc3cc(-c4csc(C(=O)NCC(C)C)c4)cnc3[nH]2)cc1 | 92
COc1ccc(-c2nc3cc(-c4csc(C(=O)NCCC(C)C)c4)cnc3[nH]2)cc1 | 80

Target: Casein kinase I isoform gamma-1 (Homo sapiens) (UniProt Q9HCP0)
Test: Inhibition of human CK1gamma1 assessed as residual activity at 1 uM relative to control

SMILES | Activity [%]
COc1ccc(-c2nc3cc(-c4csc(C(=O)NCC(C)(C)C)c4)cnc3[nH]2)cc1 | 65
COc1ccc(-c2nc3cc(-c4csc(C(=O)NCC(C)C)c4)cnc3[nH]2)cc1 | 44
COc1ccc(-c2nc3cc(-c4csc(C(=O)NCCC(C)C)c4)cnc3[nH]2)cc1 | 29

Target: T3, Discoidin domain-containing receptor 2 (Homo sapiens) (UniProt Q16832)
T3 sequence (whole entry): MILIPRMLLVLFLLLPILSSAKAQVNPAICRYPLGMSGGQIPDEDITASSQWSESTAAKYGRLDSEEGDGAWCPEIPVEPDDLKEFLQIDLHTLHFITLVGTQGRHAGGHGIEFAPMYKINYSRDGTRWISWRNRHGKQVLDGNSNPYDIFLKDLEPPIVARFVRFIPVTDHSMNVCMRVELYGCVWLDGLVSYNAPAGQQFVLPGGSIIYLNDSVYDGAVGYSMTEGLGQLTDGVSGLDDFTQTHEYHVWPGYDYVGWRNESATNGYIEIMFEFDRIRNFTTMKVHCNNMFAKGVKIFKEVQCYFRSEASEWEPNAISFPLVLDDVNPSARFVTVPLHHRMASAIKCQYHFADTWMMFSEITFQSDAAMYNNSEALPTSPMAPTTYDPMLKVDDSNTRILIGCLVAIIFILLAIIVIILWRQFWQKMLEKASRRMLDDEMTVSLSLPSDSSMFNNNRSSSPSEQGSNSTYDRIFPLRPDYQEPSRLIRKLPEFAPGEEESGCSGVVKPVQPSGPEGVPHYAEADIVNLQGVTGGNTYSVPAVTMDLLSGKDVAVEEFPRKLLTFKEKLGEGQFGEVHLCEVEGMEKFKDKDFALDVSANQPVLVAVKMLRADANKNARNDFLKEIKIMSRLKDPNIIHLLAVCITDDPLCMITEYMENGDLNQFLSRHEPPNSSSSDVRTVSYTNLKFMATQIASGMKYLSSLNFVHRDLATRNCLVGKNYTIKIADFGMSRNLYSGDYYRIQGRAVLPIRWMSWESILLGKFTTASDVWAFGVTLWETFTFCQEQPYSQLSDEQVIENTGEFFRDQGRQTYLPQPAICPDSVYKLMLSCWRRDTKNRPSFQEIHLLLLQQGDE
Test: Inhibition of human DDR2 assessed as residual activity at 1 uM relative to control

SMILES | Activity [%]
COc1ccc(-c2nc3cc(-c4csc(C(=O)NCC(C)(C)C)c4)cnc3[nH]2)cc1 | 100
COc1ccc(-c2nc3cc(-c4csc(C(=O)NCC(C)C)c4)cnc3[nH]2)cc1 | 101
COc1ccc(-c2nc3cc(-c4csc(C(=O)NCCC(C)C)c4)cnc3[nH]2)cc1 | 101

Target: Epidermal growth factor receptor (Homo sapiens) (UniProt P00533)
Test: Inhibition of human EGFR assessed as residual activity at 1 uM relative to control

SMILES | Activity [%]
COc1ccc(-c2nc3cc(-c4csc(C(=O)NCC(C)(C)C)c4)cnc3[nH]2)cc1 | 97
COc1ccc(-c2nc3cc(-c4csc(C(=O)NCC(C)C)c4)cnc3[nH]2)cc1 | 102
COc1ccc(-c2nc3cc(-c4csc(C(=O)NCCC(C)C)c4)cnc3[nH]2)cc1 | 89

Test system: Proto-oncogene tyrosine-protein kinase receptor Ret (Homo sapiens), P07949 [V804L]
Sequence (P07949 whole entry V804L): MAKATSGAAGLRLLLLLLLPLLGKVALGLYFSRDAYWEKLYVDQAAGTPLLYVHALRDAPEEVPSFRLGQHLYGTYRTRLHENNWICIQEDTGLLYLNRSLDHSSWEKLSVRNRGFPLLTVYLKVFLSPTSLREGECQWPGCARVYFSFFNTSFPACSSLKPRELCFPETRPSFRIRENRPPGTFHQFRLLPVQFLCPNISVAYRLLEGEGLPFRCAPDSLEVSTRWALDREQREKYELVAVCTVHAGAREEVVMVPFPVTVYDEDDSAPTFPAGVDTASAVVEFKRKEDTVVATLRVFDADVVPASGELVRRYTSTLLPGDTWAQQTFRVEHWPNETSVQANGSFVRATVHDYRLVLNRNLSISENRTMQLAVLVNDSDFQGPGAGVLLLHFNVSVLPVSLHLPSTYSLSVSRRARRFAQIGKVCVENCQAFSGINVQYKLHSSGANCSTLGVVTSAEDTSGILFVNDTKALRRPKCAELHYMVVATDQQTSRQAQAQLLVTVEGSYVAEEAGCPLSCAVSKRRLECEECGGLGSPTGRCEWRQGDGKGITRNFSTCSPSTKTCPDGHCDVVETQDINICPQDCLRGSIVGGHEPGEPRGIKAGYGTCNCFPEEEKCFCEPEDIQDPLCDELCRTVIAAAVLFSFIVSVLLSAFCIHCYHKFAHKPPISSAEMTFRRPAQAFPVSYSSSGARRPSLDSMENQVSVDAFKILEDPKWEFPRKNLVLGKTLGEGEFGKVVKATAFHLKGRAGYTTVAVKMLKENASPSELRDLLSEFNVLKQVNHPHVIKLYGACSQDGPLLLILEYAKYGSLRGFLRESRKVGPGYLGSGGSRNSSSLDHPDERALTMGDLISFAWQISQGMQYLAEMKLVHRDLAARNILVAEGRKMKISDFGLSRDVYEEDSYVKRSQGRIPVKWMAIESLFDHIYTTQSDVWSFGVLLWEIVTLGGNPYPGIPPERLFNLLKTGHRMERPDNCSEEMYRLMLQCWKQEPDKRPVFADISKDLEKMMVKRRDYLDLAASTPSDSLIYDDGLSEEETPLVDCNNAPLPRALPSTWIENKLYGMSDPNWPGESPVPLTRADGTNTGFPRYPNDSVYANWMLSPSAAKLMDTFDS
Test: Inhibition of human RET V804L mutant assessed as residual activity at 1 uM relative to control

SMILES | Activity [%]
COc1ccc(-c2nc3cc(-c4csc(C(=O)NCC(C)(C)C)c4)cnc3[nH]2)cc1 | 13
COc1ccc(-c2nc3cc(-c4csc(C(=O)NCC(C)C)c4)cnc3[nH]2)cc1 | 8
COc1ccc(-c2nc3cc(-c4csc(C(=O)NCCC(C)C)c4)cnc3[nH]2)cc1 | 5

Target: Vascular endothelial growth factor receptor 1 (Homo sapiens) (UniProt P17948)
Sequence (P17948 whole entry): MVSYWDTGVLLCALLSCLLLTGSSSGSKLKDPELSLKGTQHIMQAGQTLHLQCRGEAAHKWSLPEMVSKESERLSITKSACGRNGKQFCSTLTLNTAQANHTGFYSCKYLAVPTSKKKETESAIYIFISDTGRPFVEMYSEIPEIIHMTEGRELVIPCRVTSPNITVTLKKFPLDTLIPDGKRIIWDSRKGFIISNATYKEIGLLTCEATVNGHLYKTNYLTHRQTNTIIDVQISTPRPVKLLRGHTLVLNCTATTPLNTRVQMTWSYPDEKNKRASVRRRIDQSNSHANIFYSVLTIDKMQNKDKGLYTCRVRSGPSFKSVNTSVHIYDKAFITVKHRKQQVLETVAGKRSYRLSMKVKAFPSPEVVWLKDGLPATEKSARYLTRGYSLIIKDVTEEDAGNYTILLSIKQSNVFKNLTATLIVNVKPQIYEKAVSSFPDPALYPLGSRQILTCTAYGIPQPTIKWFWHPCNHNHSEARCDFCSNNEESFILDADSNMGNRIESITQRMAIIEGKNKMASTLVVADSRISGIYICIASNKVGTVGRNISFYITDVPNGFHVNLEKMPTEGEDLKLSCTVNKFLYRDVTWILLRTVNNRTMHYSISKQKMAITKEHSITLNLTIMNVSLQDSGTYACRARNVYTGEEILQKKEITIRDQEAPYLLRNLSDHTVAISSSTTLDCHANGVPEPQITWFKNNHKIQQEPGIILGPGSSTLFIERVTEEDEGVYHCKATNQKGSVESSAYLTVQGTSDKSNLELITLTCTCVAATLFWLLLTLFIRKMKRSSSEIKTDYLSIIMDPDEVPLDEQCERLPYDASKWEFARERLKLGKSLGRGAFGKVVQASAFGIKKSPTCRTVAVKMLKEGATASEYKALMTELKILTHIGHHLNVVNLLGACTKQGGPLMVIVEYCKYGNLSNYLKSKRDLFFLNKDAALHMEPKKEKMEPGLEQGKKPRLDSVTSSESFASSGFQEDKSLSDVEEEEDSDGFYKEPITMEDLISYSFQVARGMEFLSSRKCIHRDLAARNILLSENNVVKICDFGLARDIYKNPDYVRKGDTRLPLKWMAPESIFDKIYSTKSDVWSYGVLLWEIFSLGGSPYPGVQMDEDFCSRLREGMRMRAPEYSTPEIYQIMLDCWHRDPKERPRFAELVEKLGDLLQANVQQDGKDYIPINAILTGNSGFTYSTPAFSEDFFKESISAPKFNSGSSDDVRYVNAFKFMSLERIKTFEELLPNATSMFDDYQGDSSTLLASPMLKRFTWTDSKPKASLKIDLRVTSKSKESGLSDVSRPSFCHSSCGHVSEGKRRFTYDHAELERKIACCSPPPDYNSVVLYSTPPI
Test: Inhibition of human FLT1 assessed as residual activity at 1 uM relative to control

SMILES | Activity [%]
COc1ccc(-c2nc3cc(-c4csc(C(=O)NCC(C)(C)C)c4)cnc3[nH]2)cc1 | 24
COc1ccc(-c2nc3cc(-c4csc(C(=O)NCC(C)C)c4)cnc3[nH]2)cc1 | 10
COc1ccc(-c2nc3cc(-c4csc(C(=O)NCCC(C)C)c4)cnc3[nH]2)cc1 | 22

Target: Serine/threonine-protein kinase MARK1 (Homo sapiens) (UniProt Q9P0L2)
Test: Inhibition of human MARK1 assessed as residual activity at 1 uM relative to control

SMILES | Activity [%]
COc1ccc(-c2nc3cc(-c4csc(C(=O)NCC(C)(C)C)c4)cnc3[nH]2)cc1 | 58
COc1ccc(-c2nc3cc(-c4csc(C(=O)NCC(C)C)c4)cnc3[nH]2)cc1 | 48
COc1ccc(-c2nc3cc(-c4csc(C(=O)NCCC(C)C)c4)cnc3[nH]2)cc1 | 61

Test system: Epidermal growth factor receptor (Homo sapiens), P00533 [L858R,T790M]
Test: Inhibition of human EGFR T790M/L858R double mutant assessed as residual activity at 1 uM relative to control
Assay type: protein assay

SMILES | Activity [%]
COc1ccc(-c2nc3cc(-c4csc(C(=O)NCC(C)(C)C)c4)cnc3[nH]2)cc1 | 94
COc1ccc(-c2nc3cc(-c4csc(C(=O)NCC(C)C)c4)cnc3[nH]2)cc1 | 90
COc1ccc(-c2nc3cc(-c4csc(C(=O)NCCC(C)C)c4)cnc3[nH]2)cc1 | 76
